Assay results reported in patent publication EP0326490B2, “Synthetic peptides and mixtures thereof for detecting HIV antibodies” (ADALTIS INC., priority 1988, dated 2004).
Positions of bridges follow the written chain, without caps; N, C: chain ends. Residues, ends and D or L forms follow the SMILES beside them. No end group written: not given here.

Columns and labels:
HIV-1 positive sera [1] = settings: cited from earlier work; for HIV-1 positive sera reacting of sera tested: J. Virol. 61, 2639-2641, 1987
HIV-1 positive sera [2] = experiment: ELISA, single peptides identifying HIV-1 positive sera; assay type: binding, human; settings: single gp41 or gp120 peptide
Description: According to this test a peptide or a peptide mixture of the present invention is adsorbed onto the wells of a microtiter plate. The wells are then treated with sera to be tested. After washing, anti-human IgG labeled with peroxidase is added to the wells. The determination of the peroxidase is performed with a corresponding substrate, e.g. with o-phenylene diamine. Also in this procedure the peroxidase can be exchanged by another label, e.g. by a radioactive or fluorescence label.
Each well of the microtiter plate is saturated with 100 µl of a solution containing a peptide or mixture of peptides (5 µg/ml) and left overnight. The wells are emptied and washed twice with a washing buffer (Tris, 0.043M; NaCl, 0.5M;thimerosal, 0.01% w/v; Tween 20, 0.05% v/v; pH 7.4). The wells are then saturated with […] of washing buffer for 1 hr. at 37°C and washed once with the same buffer. Serum samples to be analyzed are diluted with specimen buffer (washing buffer plus casein, 0.05% w/v). The bells are rinsed with washing buffer prior to the addition of the diluted serum sample (0.1 ml). These are left to incubate for 1 hr. at room temperature. The wells are then emptied, washed twice rapidly and then once for two minutes with washing buffer. […] The wells are then emptied and washed twice rapidly with washing buffer and then five times in which the buffer was in contact with the well 2 minutes per washing. The substrate solution (3,3', 5,5'-tetramethylbenzidine, 8 mg per ml of DMSO) is diluted with 100 volumes 0.1 M citrate-acetate buffer, pH 5.6 containing 0.1% v/v of 30% H2O2 and added to each well (0.1 ml per well). After 10 minutes the contents of each well is treated with 0.1 ml 2N H2SO4 and the optical density read at 450 nm. All determinations are done in duplicate.

[3] = Stability of linear and cyclic peptide in coating buffers (HPLC, Ellman's test); assay type: physicochemical
Source text: Even though results presented in TABLE 5 clearly show the superiority of cyclic peptides over their linear counterpart in detecting HIV-1-antibodies, that increased sensitivity could have been underestimated because of probable cyclization and polymerization of the linear peptide after solubilization in a carbonate buffer (pH 9.6). That experiment was repeated with the linear 87 and cyclic 87c peptides dissolved in a carbonate buffer (pH 9.6) as before and also in 10% acetic acid (pH 2.7). […] It is believed that cyclization and polymerization also occured in the wells of the microtiter plates although the exact proportion of cyclic peptide bound to the plates versus linear has not been as yet determined.

Compound: 12-amino acid sequence (600-611): 12-amino acid sequence (600-611) from gp41-(HIV-1), Gnann et al. (GKLICTTAVPWN; Transmembrane protein gp41; UniProt P04578 600-611, looked up, fragment)
- HIV-1 infected patients reactive of patients tested (HIV-1 positive sera [1]; Gnann et al., J. Infect. Dis. 156, 261-267, 1987, patients from the United States): 131 out of 132
- HIV-1 positive sera reacting of sera tested (HIV-1 positive sera [1]; Gnann et al.): 22 out of 22
- positive sera detected of sera tested (HIV-1 positive sera [1]; tests at the Centers for Disease Control, Atlanta): 78 out of 79

Compound: 88: cyclic peptide, amino acid positions 590-620 of gp41-HIV-1 (QQLLGIWGCSGKLICTTAVPWNASWSNKSLE; disulfide 9-15 (inferred); UniProt P04578 590-620, looked up, fragment) [Peptide 88]
- % Positive Sera correctly Idenfitied (HIV-1 positive sera [2]): 100%

Compound: 96: cyclic peptide, amino acid positions 604-629 of gp41-HIV-1 (CTTAVPWNASWSNKSLEQIWNHTTWM; also: cyclic peptide, ring not given here; UniProt P04578 604-629, looked up, fragment) [Peptide 96]
- % Positive Sera correctly Idenfitied (HIV-1 positive sera [2]): 100%

Compound: CC[C@H](C)[C@H](NC(=O)CNC(=O)[C@H](CC(C)C)NC(=O)[C@H](CC(C)C)NC(=O)[C@H](CCC(N)=O)NC(=O)[C@H](CCC(N)=O)NC(=O)[C@H](CC(=O)O)NC(=O)[C@H](CCCCN)NC(=O)[C@H](CC(C)C)NC(=O)[C@H](Cc1ccc(O)cc1)NC(=O)[C@H](CCCNC(=N)N)NC(=O)[C@H](CCC(=O)O)NC(=O)[C@@H](NC(=O)[C@H](C)NC(=O)[C@H](CC(C)C)NC(=O)[C@@H](NC(=O)[C@@H](N)CCCNC(=N)N)[C@@H](C)CC)C(C)C)C(=O)N[C@@H](Cc1c[nH]c2ccccc12)C(=O)NCC(=O)N[C@@H](CS)C(=O)N[C@@H](CO)C(=O)NCC(=O)N[C@@H](CCCCN)C(=O)N[C@@H](CC(C)C)C(=O)N[C@H](C(=O)N[C@@H](CS)C(=O)N[C@H](C(=O)N[C@H](C(=O)N[C@@H](C)C(=O)N[C@H](C(=O)N1CCC[C@H]1C(=O)N[C@@H](Cc1c[nH]c2ccccc12)C(=O)N[C@@H](CC(N)=O)C(=O)N[C@@H](C)C(=O)N[C@@H](CO)C(=O)O)C(C)C)[C@@H](C)O)[C@@H](C)O)[C@@H](C)CC [Peptide 87] (H-RILAVERYLKDQQLLGIWGCSGKLICTTAVPWNAS-OH)
- stability in solution (HPLC, Ellman's test) ([3]; 10% acetic acid (pH 2.7)): remained linear
- stability in solution (HPLC analysis) ([3]; carbonate buffer (pH 9.6), room temperature): underwent cyclization and polymerization

Compound: H-CGKIEPLGVAPTKAKRRVVQREKR-OH [Peptide 71]
- % Positive Sera correctly Idenfitied (HIV-1 positive sera [2]): 83%

Compound: SGKLIC
- HIV-1 positive sera reacting of sera tested (HIV-1 positive sera [1]; Gnann et al.): not immunoreactive with any of the 22 HIV-1 positive sera tested

Compound: SGKLICTTAVPWNAS [short synthetic peptide covering residues 606 to 620 of gp41 (HIV-1)]
- specificity (samples correctly identified of samples tested) (HIV-1 positive sera [1]; US Patent Appl. No. 120,027): 63/63
- sensitivity (HIV-1 positive sera [1]; prior-art reports, HIV-1 seropositive samples): 89%
